Assay results from patent US12678451B2, “Cannabinoid and omega fatty acid compositions and methods of using” (GreenWay Herbal Products, LLC, priority 2019, dated 2026).
Like-named read-outs stand apart in the source and are kept apart here.

Tests used:
DPPH antioxidant assay = type: biochemical; settings: 100 μM
Experimental: The ability of the cannabinoids to act as potential antioxidants was assessed using the 2,2-diphenyl-1-picrylhydrazyl (DPPH) antioxidant assay. The cannabinoids CBDA, CBD, CBDVA, CBDV, CBG, THCV, and the 1:1 CBD:CBDA mixture had the highest antioxidant activities with radical scavenging activities of 38.19%, 48.00%, 43.81%, 44.21%, 44.28%, 45.71%, and 43.74%, respectively.
The 2,2-diphenyl-1-picrylhydrazyl (DPPH) free radical (Alfa Aesar) was prepared at 0.1 mM in ethanol. The cannabinoids were tested at a final concentration of 100 uM. 2 uL of 7.5 mM stock solutions of the cannabinoids to be tested in DMSO were added to 148 uL of 0.1 mM DPPH to achieve a final concentration of 100 μM in the assay. Ascorbic acid (Thermo Scientific) at a final concentration of 10 mg/ml was used as a positive control. The reaction mixture was incubated in the dark at room temperature for 1 hour, the absorbance of the mixture was read at 517 nm using a Spectra Max 5M microplate reader (Molecular Devices, LLC, Sunnyvale, Calif., USA) and the absorbance was converted to percent radical scavenging activity (% RSA) using the following formula: % RSA=[(Absorbance of the control−Absorbance of the sample)/(Absorbance of the control)]×100.
Free radical production occurs when the immune system is activated and antioxidants represent potential effective treatments for inflammatory conditions and autoimmune diseases. […] The DPPH antioxidant assay can be used to measure the ability of a compound to scavenge free radicals by measuring the ability of compounds to hydrogenate and reduce DPPH. The DPPH assay was conducted on CBCA, CBDA, CBDVA, CBGA, CBLA, CBNA, THCVA, and their decarboxylated derivatives as well as the 1:1 CBD:CBDA mixture.

[1] = test system: cytokine levels in differentiated THP-1 cells treated with LPS; assay: THP-1 human cellular LPS cytokine assay, four independent experiments, per cytokine; type: cell-based; settings: 2 µM; LPS 20 ng/mL
[2] = test system: cytokines induced in mice by LPS; assay: Mouse LPS cytokine animal model (Example 3), cannabinoids in PB with 5% DMSO; type: in vivo; settings: 5 mg/kg
Experimental: This experiment was conducted to compare the ability of CBD, CBDA or the 1:1 equimolar mixture of CBD:CBDA to suppress the induction of cytokines whose expression levels were induced in mice by LPS.
The ability of agents to suppress the immune system can be tested in vivo using an LPS mouse model, in which mice are injected with LPS to cause an immune response (Field et al., 1970; Ghezzi P and Sipe J D, 1988).
Four 20 g female C57BL/6 mice were used per group. The experimental mice were first injected with 0.1 mL of the cannabinoids prepared at 1 mg/mL in phosphate buffer (PB) with 5% DMSO to yield a final dose of 5 mg/kg, followed one hour later by the injection of 0.1 mL of 0.02 mg/mL LPS in PB to yield a final dose of 0.1 mg/kg. Mice injected with 0.1 mL of PB with 5% DMSO and 0.1 mL of PBS served as a non-induced control and mice injected with 0.1 mL of PB with 5% DMSO and 0.1 mL of 0.02 mg/mL LPS in PB served as a LPS untreated control. After allowing two hours for the immune system to be induced by LPS, the mice were then euthanized, heart punctures performed to extract the blood, which was allowed to coagulate on ice for 1 hour before centrifuging to isolate the serum. The levels of 32 of the most common mouse cytokines (Eve Technologies, Calgary, Canada, Table 9) were determined by multi-plex analysis.

[3] = test system: differentiated U-937 cells; assay: Human cellular U-937 autophagy induction assay (anti-LC3); type: cell-based; settings: 1.0 μM, 12 hours
Experimental: The induction of autophagy was monitored using anti-LC3 antibodies to detect LC3 on the autophagosome in human U-937 pro-monocytic histiocytic lymphoma cells (ATCC, Manassas, Va., USA), which generate morphologies characteristic of macrophages upon induction by various stimuli. U-937 cells were cultured in RPMI-1640 medium with L-glutamine and sodium bicarbonate (Sigma-Aldrich, St Louis, Mo.) supplemented with 10% fetal bovine serum (FBS) and 1% penicillin in 25 cm2 tissue flasks at 37° C. in a 5% CO2 humidified atmosphere and passaged every 2-3 days. U-937 cells were seeded in 96 well plates at 5×10^5 cells/mL and stimulated with 100 ng/mL PMA to induce differentiation for 24 hours. The cells were then treated with the various cannabinoids at 1.0 μM concentrations for 12 hours. 30 μM chloroquine was used as a positive control. After treatment, the cells were fixed using 3.7% formaldehyde in PBS for 15 minutes at room temperature and washed with PBS to remove the fixative. Permeabilization reagent (0.2% Triton X-100 in PBS) (Sigma-Aldrich) was added, the cells were incubated for 15 minutes at room temperature and then the cells were washed with PBS to remove the permeabilization reagent. LC3B rabbit polyclonal antibody (Invitrogen) was added at a final concentration of 0.5 μg/ml for 1 hour at room temperature and the cells were washed with PBS remove the primary antibody. Secondary conjugated goat anti-rabbit polyclonal antibody (Thermo Scientific) was then added at a final concentration of 2.0 μg/ml for 1 hour at room temperature. The cells were washed, Hoechst dye was added to stain the nucleus and the cells were imaged using an Arrayscan VTI high-content screening (HCS) reader (Thermo Scientific) with the appropriate filters and the data was analyzed using the vHCS Scan software.
Chloroquine at a concentration of 30 μM was included as a positive control. The ability to induce autophagy was determined as a percentage with respect to the untreated control.

[4] = doses up to 100 mg in mice; cited from earlier work
[5] = doses up to 600 mg in humans; cited from earlier work
[6] = test system: animal or human cells grown via tissue culture; settings: cited from earlier work
[7] = test system: cytokine levels in differentiated THP-1 cells treated with LPS; assay: THP-1 human cellular LPS cytokine assay, three independent experiments, total averaged suppression

In the case of `C=C(C)[C@@H]1CCC(C)=C[C@H]1c1c(O)cc(CCCCC)cc1O` [CBD, 2-[(1R,6R)-6-Isopropenyl-3-methyl-2-cyclohexen-1-yl]-5-pentyl-1,3-benzenediol], the “radical scavenging activity compared to the untreated control” value (DPPH antioxidant assay) is reported as “at least two-fold”, the “% RSA (radical scavenging activity)” value (DPPH antioxidant assay; 1 hour) is reported as 48.00% and the Average cytokine suppression [1] is reported as 39.62%. It also gave an EGF suppression [1] of −5.61%, an FGF-β suppression [1] of 41.85% and a Flt-3L suppression [1] of 60.02%. For the same molecule, the G-CSF suppression [1] was 51.32%, the GM-CSF suppression [1] was 45.16% and the IFNγ suppression [1] was 13.71%. The IL-1α suppression [1] was 55.14%, the IL-1β suppression [1] was 71.06% and the IL-4 suppression [1] was 14.63%. For the same molecule, the IL-6 suppression [1] was 66.26%, the IL-7 suppression [1] was 18.2% and the IL-10 suppression [1] was 32.42%. The “IL-12 p70 suppression” value [1] was −31.17%, the IL-15 suppression [1] was 62.30% and the IL-18 suppression [1] was 56.90%. For the same molecule, the IP-10 suppression [1] was 67.08%, the MCP-1 suppression [1] was 43.90% and the MIP-1β suppression [1] was 31.85%. The TNFα suppression [1] was 29.05%, the TNFβ suppression [1] was 68.24% and the Average cytokine suppression [2] was 12.86%. The GM-CSF suppression [2] was 34.53%, the IFNγ suppression [2] was −0.19% and the IL-1β suppression [2] was 10.58%. For the same molecule, the IL-2 suppression [2] was −0.09%, the IL-6 suppression [2] was 4.49% and the “IL-12β p40 suppression” value [2] was 34.89%. It also gave an IL-13 suppression [2] of 6.38%, an IL-17 suppression [2] of 7.51% and an IP-10 suppression [2] of 1.72%. The KC suppression [2] was 7.85%, the LIF suppression [2] was 25.24% and the M-CSF suppression [2] was 7.70%. It also gave an MIP-1α suppression [2] of 6.69%, an MIP-1β suppression [2] of −0.77% and an MIP-2 suppression [2] of 34.56%. The TNF-α suppression [2] was 24.74%, the “Fluorescence (LC3)” value [3] was 45.43 and the activation at 1 µM ([3]; Homo sapiens, U-937, read-out: Induction of autophagy with respect to the untreated control) was -5.84%. The adverse side effects [4] was “no adverse side effects”, the adverse side effects [5] was “no adverse side effects” and the “dose that can cause significant cytotoxicity” value [6] was “less than 5 μM”. The “effectiveness at reducing elevated cytokine levels relative to dexamethasone” value [7] was “at least half as effective as dexamethasone” and the inhibition at 2 µM ([7]; Homo sapiens, THP-1, 4 h, read-out: % Cytokine Suppression (total averaged)) was 33.1%.
